Data on 8 compounds can be found in ChEMBL document CHEMBL3632608, “Effects of alkyl side chains and terminal hydrophilicity on vitamin D receptor (VDR) agonistic activity based on the diphenylpentane skeleton” (Bioorg Med Chem Lett, 2015).

The source made the active and inactive calls. The calls are words filed in the database; no cut-off is given here.

What all share (type): cell-based
Assay [1] addresses T1, Vitamin D3 receptor (Homo sapiens) (UniProt P11473).
T1 sequence (whole entry): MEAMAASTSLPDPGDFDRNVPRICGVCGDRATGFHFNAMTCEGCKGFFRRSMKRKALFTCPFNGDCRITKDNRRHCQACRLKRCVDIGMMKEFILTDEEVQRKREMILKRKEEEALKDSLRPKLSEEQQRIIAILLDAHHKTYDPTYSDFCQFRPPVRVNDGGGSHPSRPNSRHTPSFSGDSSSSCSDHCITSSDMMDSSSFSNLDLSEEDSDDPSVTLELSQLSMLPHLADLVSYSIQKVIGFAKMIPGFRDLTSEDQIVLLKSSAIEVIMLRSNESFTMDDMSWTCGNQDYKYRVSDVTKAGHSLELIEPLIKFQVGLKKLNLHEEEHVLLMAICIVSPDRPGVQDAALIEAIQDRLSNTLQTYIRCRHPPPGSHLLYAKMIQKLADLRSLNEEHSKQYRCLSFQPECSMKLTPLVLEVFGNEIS
The assay can be described thus: Antagonist activity at human VDR expressed in HEK293 cells co-expressing CMX-GAL4N and TK-MH100x4-LUC assessed as inhibition of 1alpha,25(OH)2VD3-induced transcriptional activity up to 10 uM by beta-galactosidase reporter gene assay.

The target in assay [2] is T2, Vitamin D3 receptor (Homo sapiens, UniProt P11473).
T2 sequence (P11473 whole entry): T1 sequence (whole entry)
The assay is described as follows: Agonist activity at human VDR expressed in HEK293 cells co-expressing CMX-GAL4N and TK-MH100x4-LUC assessed as induction of transcriptional activity by beta-galactosidase reporter gene assay.

For assay [3], the target named is T1, Vitamin D3 receptor (Homo sapiens). The assay is described as follows: Agonist activity at human VDR expressed in HEK293 cells co-expressing CMX-GAL4N and TK-MH100x4-LUC assessed as induction of transcriptional activity at 10 uM by beta-galactosidase reporter gene assay relative to 1alpha,25(OH)2VD3. For orientation: Reporter assays use an easily measured gene product as a stand-in for the process of interest.

The target is the same in assay [4]. The assay can be described thus: Agonist activity at human VDR expressed in HEK293 cells co-expressing CMX-GAL4N and TK-MH100x4-LUC assessed as induction of transcriptional activity at 3 uM by beta-galactosidase reporter gene assay relative to 1alpha,25(OH)2VD3.
Assay [5] shares this target. The assay is described as follows: Agonist activity at VDR in human HL60 cells assessed as induction of cell differentiation at 10 uM by NBT reduction assay. The following applies: HL-60.

One may read the EC50 as the concentration needed to bring the measured effect to its halfway point. Turning to `CCCCCCOC(C)(C)[C@@H](O)COc1ccc(C(CC)(CC)c2ccc(OC[C@@H](O)CO)c(C)c2)cc1C`, the inhibition entry in assay [1] was “inactive”. In addition, the EC50 in assay [2] (read-out: EC50) came out at 1500 nM. Further, the Activity in assay [3] was determined as 47%; in assay [4], 37%; in assay [5], 25.1%.

Consider `CCCCCCCCCCOC(C)(C)[C@H](O)COc1ccc(C(CC)(CC)c2ccc(OC[C@@H](O)CO)c(C)c2)cc1C`, for which the EC50 result in assay [2] (hek293) was “Not Active”.

`CCCCCCCCCCOC(C)(C)[C@@H](O)COc1ccc(C(CC)(CC)c2ccc(OC[C@@H](O)CO)c(C)c2)cc1C`: in assay [2] (hek293), the half-maximal effective concentration (EC50) result is listed as “Not Active”.

On to `CCC(CC)(c1ccc(OC[C@@H](O)CO)c(C)c1)c1ccc(OC[C@H](O)C(C)(C)OCCCCCCCCO)c(C)c1`, for which, in assay [1], the inhibition entry is “inactive”. In addition, the EC50 in assay [2] (read-out: EC50) came to 1200 nM. The Activity worked out at 100% in assay [3], 77% in assay [4] and 37.6% in assay [5].

Consider `CCC(CC)(c1ccc(OC[C@@H](O)CO)c(C)c1)c1ccc(OC[C@@H](O)C(C)(C)OCCCCCCCCO)c(C)c1`, for which the inhibition entry in assay [1] is “inactive”. In assay [2] (read-out: EC50), the concentration for a half-maximal effect (EC50) was more than 3000 nM. The Activity in assay [4] is 40%; in assay [5], 18.8%.

Regarding `CCCCCCOC(C)(C)[C@H](O)COc1ccc(C(CC)(CC)c2ccc(OC[C@@H](O)CO)c(C)c2)cc1C`, the inhibition result in assay [1] is “inactive”. The EC50 in assay [2] (read-out: EC50) is more than 10000 nM. For the same compound, the Activity was determined as 22% in assay [3] and 19% in assay [4].

`CCCCCCCCOC(C)(C)[C@H](O)COc1ccc(C(CC)(CC)c2ccc(OC[C@@H](O)CO)c(C)c2)cc1C`: in assay [2] (hek293), the EC50 entry is “Not Active”.

Regarding `CCCCCCCCOC(C)(C)[C@@H](O)COc1ccc(C(CC)(CC)c2ccc(OC[C@@H](O)CO)c(C)c2)cc1C`, the half-maximal effective concentration (EC50) result in assay [2] (hek293) is listed as “Not Active”.
